Experimental data reported in patent US20090181963A1, “3H-[1,2,3]TRIAZOLO[4,5-D]PYRIMIDINE COMPOUNDS, THEIR USE AS mTOR KINASE AND PI3 KINASE INHIBITORS, AND THEIR [sequence]” (Wyeth, priority 2008, published 2009).

Experiments:
PI3 Kinase α = PI3 Kinase α (Homo sapiens, UniProt P42336); test: Fluorescence polarization assay for PI3K (PI3 Kinase α); type: biochemical; conditions: diC8-PI(4,5)P2 substrate, 25 μM ATP, one hour at 25° C.
PI3 Kinase γ = PI3 Kinase γ (Homo sapiens, UniProt P48736); test: Fluorescence polarization assay for PI3K (PI3 Kinase γ); type: biochemical; conditions: diC8-PI(4,5)P2 substrate, 25 μM ATP, one hour at 25° C.
Sequence of PI3 Kinase γ (P48736 whole entry): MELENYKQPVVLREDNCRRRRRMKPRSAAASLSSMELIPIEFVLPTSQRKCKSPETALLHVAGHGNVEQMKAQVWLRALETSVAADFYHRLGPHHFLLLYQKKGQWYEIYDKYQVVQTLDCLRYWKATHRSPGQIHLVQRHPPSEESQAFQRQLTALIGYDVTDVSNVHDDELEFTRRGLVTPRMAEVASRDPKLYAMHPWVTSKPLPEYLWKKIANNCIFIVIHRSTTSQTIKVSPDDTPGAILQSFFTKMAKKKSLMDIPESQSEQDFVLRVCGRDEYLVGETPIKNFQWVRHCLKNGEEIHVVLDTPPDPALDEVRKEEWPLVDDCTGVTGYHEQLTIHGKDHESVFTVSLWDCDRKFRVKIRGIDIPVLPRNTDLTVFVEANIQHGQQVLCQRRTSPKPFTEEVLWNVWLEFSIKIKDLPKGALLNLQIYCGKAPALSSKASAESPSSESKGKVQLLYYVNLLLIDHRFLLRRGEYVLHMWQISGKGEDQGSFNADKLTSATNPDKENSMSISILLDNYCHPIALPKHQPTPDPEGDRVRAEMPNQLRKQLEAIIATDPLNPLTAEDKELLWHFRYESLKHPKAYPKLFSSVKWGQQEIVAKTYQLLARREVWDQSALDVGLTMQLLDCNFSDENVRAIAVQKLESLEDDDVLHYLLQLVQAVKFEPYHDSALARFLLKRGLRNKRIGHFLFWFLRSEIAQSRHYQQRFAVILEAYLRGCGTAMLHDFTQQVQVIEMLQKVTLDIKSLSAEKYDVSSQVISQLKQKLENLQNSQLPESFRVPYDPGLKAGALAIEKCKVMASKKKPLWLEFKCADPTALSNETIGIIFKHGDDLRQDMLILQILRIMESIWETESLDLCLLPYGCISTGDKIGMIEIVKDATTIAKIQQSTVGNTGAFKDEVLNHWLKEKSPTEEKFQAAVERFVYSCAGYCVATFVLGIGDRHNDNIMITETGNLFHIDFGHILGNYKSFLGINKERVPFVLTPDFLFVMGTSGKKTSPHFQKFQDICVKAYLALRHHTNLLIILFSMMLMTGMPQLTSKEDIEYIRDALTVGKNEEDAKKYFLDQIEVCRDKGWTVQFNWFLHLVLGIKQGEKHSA

Sequence of PI3 Kinase α (P42336 whole entry): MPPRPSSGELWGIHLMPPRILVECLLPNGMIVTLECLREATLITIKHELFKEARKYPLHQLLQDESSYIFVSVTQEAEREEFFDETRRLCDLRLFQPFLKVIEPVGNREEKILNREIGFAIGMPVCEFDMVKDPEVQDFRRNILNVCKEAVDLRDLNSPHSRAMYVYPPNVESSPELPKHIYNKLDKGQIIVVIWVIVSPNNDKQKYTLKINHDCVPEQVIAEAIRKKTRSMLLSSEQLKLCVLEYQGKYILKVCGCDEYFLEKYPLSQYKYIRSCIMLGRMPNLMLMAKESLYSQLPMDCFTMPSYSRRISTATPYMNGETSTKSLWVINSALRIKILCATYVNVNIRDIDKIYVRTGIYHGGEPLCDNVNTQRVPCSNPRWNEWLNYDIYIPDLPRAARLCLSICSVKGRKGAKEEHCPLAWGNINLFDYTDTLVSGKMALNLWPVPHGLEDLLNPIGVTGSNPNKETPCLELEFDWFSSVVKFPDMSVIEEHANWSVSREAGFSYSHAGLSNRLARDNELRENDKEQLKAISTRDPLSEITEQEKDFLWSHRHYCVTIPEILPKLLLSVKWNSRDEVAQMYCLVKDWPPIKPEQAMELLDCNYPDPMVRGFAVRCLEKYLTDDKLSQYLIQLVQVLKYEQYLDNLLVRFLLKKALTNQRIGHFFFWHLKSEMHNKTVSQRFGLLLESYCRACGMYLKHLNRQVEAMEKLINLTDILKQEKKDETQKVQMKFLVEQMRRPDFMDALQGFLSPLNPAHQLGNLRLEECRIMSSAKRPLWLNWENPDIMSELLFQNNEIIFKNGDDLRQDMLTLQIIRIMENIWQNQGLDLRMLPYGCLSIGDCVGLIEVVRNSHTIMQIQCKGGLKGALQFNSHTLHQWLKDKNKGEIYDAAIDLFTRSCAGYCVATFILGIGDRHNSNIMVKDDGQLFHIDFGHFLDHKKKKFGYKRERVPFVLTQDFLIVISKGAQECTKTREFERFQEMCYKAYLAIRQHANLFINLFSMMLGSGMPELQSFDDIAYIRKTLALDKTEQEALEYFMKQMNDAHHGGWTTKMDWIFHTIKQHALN
Sequence of PI3 Kinase α (P27986 whole entry partner): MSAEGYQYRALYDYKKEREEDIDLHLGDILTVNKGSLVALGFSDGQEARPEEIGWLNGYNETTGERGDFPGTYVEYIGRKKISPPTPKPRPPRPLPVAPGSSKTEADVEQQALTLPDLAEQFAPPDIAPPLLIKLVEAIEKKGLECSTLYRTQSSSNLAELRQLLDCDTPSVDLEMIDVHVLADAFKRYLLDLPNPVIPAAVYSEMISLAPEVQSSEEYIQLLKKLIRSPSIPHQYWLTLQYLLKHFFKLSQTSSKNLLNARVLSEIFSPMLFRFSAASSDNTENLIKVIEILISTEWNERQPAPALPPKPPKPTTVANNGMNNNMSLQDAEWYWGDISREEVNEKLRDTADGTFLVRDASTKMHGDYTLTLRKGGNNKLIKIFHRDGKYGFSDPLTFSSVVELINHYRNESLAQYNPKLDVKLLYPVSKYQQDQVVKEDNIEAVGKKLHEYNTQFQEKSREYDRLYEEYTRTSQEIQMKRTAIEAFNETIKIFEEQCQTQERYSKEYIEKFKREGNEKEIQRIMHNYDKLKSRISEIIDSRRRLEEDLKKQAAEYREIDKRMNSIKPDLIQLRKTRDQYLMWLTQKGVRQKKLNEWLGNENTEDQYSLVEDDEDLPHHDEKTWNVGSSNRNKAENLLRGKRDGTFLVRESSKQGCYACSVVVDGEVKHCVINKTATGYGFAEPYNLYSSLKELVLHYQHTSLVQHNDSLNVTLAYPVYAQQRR

CCn1nnc2c(N3CCOCC3)nc(-c3ccc(NC(=O)Nc4ccc(C(N)=O)cc4)cc3)nc21 [Example 60, 4-({[4-(3-ethyl-7-morpholin-4-yl-3H-[1,2,3]triazolo[4,5-d]pyrimidin-5-yl)phenyl]carbamoyl}amino)benzamide]
IC50 (PI3 Kinase α): < 2.6 nM | IC50 (PI3 Kinase γ): 16.5 nM

O=C(NC1CC1)c1ccc(Cn2nnc3c(N4CCOCC4)nc(-c4cccc(O)c4)nc32)cc1 [Example 221, N-cyclopropyl-4-{[5-(3-hydroxyphenyl)-7-morpholin-4-yl-3H-[1,2,3]triazolo[4,5-d]pyrimidin-3-yl]methyl}benzamide]
IC50 (PI3 Kinase α): 303 nM | IC50 (PI3 Kinase γ): 1180 nM

Oc1cncc(-c2nc(N3CCOCC3)c3nnn(C4CCN(Cc5ccco5)CC4)c3n2)c1 [Example 13, 5-{3-[1-(2-furylmethyl)piperidin-4-yl]-7-morpholin-4-yl-3H-[1,2,3]triazolo[4,5-d]pyrimidin-5-yl}pyridin-3-ol]
IC50 (PI3 Kinase α): 31 nM | IC50 (PI3 Kinase γ): 111 nM

O=C(Nc1ccc(F)cc1)c1ccc(Cn2nnc3c(N4CCOCC4)nc(-c4cccc(O)c4)nc32)cc1 [Example 217, N-(4-fluorophenyl)-4-{[5-(3-hydroxyphenyl)-7-morpholin-4-yl-3H-[1,2,3]triazolo[4,5-d]pyrimidin-3-yl]methyl}benzamide]
IC50 (PI3 Kinase α): 240 nM | IC50 (PI3 Kinase γ): 240 nM

CCn1nnc2c(N3CCOC[C@@H]3C)nc(-c3ccc(N)cc3)nc21 [Example 67, (S)-4-(3-ethyl-7-(3-methylmorpholino)-3H-[1,2,3]triazolo[4,5-d]pyrimidin-5-yl)aniline]
IC50 (PI3 Kinase α): 2140 nM | IC50 (PI3 Kinase γ): > 10000 nM

CN(C)CCNC(=O)Nc1ccc(-c2nc(N3CCOCC3)c3nnn(C4CCN(Cc5ccc(Cl)cc5F)CC4)c3n2)cc1 [Example 156, 1-(4-(3-(1-(4-chloro-2-fluorobenzyl)piperidin-4-yl)-7-morpholino-3H-[1,2,3]triazolo[4,5-d]pyrimidin-5-yl)phenyl)-3-(2-(dimethylamino)ethyl)urea]
IC50 (PI3 Kinase α): 170 nM | IC50 (PI3 Kinase γ): 557 nM

CCn1nnc2c(N3CCOCC3)nc(-c3ccc(NC(=O)Nc4ccc(C(=O)NCCN5CCOCC5)cc4)cc3)nc21 [Example 53, 4-({[4-(3-ethyl-7-morpholin-4-yl-3H-[1,2,3]triazolo[4,5-d]pyrimidin-5-yl)phenyl]carbamoyl}amino)-N-(2-morpholin-4-ylethyl)benzamide]
IC50 (PI3 Kinase α): 3.5 nM | IC50 (PI3 Kinase γ): 29 nM

CC(C)n1nnc2c(N3CCOCC3)nc(-c3ccc(NC(=O)Nc4cccnc4)cc3)nc21 [Example 83, 1-[4-(3-isopropyl-7-morpholin-4-yl-3H-[1,2,3]triazolo[4,5-d]pyrimidin-5-yl)-phenyl]-3-pyridin-3-yl-urea]
IC50 (PI3 Kinase α): 10.5 nM | IC50 (PI3 Kinase γ): 48.5 nM

1-{4-[3-(2-hydroxyethyl)-7-morpholin-4-yl-3H-[1,2,3]triazolo[4,5-d]pyrimidin-5-yl]phenyl}-3-pyridin-4-ylurea [Example 183]
IC50 (PI3 Kinase α): 5.3 nM | IC50 (PI3 Kinase γ): 20 nM

O=C(Cn1nnc2c(N3CCOCC3)nc(-c3cccc(CO)c3)nc21)Nc1ccc(F)cc1 [Example 238, N-(4-fluorophenyl)-2-{5-[3-(hydroxymethyl)phenyl]-7-morpholin-4-yl-3H-[1,2,3]triazolo[4,5-d]pyrimidin-3-yl}acetamide]
IC50 (PI3 Kinase α): 245 nM | IC50 (PI3 Kinase γ): 2070 nM

O=C(NCCN1CCCC1)c1ccc(Cn2nnc3c(N4CCOCC4)nc(-c4cccc(O)c4)nc32)cc1 [Example 213, 4-{[5-(3-hydroxyphenyl)-7-morpholin-4-yl-3H-[1,2,3]triazolo[4,5-d]pyrimidin-3-yl]methyl}-N-(2-pyrrolidin-1-ylethyl)benzamide]
IC50 (PI3 Kinase α): 282 nM | IC50 (PI3 Kinase γ): 1380 nM

CCn1nnc2c(N3CCOC[C@@H]3C)nc(-c3ccc(NC(=O)Nc4ccc(N5CCN(C)CC5)cc4)cc3)nc21 [Example 76, (S)-1-(4-(3-ethyl-7-(3-methylmorpholino)-3H-[1,2,3]triazolo[4,5-d]pyrimidin-5-yl)phenyl)-3-(4-(4-methylpiperazin-1-yl)phenyl)urea]
IC50 (PI3 Kinase α): 5 nM | IC50 (PI3 Kinase γ): 32 nM

CC(C)(C)OC(=O)Cn1nnc2c(N3CCOCC3)nc(-c3cccc(CO)c3)nc21 [Example 232, tert-butyl {5-[3-(hydroxymethyl)phenyl]-7-morpholin-4-yl-3H-[1,2,3]triazolo[4,5-d]pyrimidin-3-yl}acetate]
IC50 (PI3 Kinase α): 370 nM | IC50 (PI3 Kinase γ): 1950 nM

Oc1cccc(-c2nc(N3CCOCC3)c3nnn(CCN4CCN(Cc5ccccc5)CC4)c3n2)c1 [Example 114, 3-{3-[2-(4-benzylpiperazin-1-yl)ethyl]-7-morpholin-4-yl-3H-[1,2,3]triazolo[4,5-d]pyrimidin-5-yl}phenol]
IC50 (PI3 Kinase α): 255 nM | IC50 (PI3 Kinase γ): 982 nM

CN1CCC(n2nnc3c(N4CCOCC4)nc(-c4ccc(NC(=O)Nc5cccnc5)cc4)nc32)CC1 [Example 164, 1-{4-[3-(1-methylpiperidin-4-yl)-7-morpholin-4-yl-3H-[1,2,3]triazolo[4,5-d]pyrimidin-5-yl]phenyl}-3-pyridin-3-ylurea]
IC50 (PI3 Kinase α): 22 nM | IC50 (PI3 Kinase γ): 147 nM

CN(C)CCNC(=O)Nc1ccc(-c2nc(N3CCOCC3)c3nnn(C4CCN(Cc5ccccc5)CC4)c3n2)cc1 [Example 4, 1-{4-[3-(1-benzylpiperidin-4-yl)-7-morpholin-4-yl-3H-[1,2,3]triazolo[4,5-d]pyrimidin-5-yl]phenyl}-3-[2-(dimethylamino)ethyl]urea]
IC50 (PI3 Kinase α): 66 nM | IC50 (PI3 Kinase γ): 204 nM

Oc1cccc(-c2nc(N3CCOCC3)c3nnn(CCCN4CCCC4)c3n2)c1 [Example 9, 3-[7-morpholin-4-yl-3-(3-pyrrolidin-1-ylpropyl)-3H-[1,2,3]triazolo[4,5-d]pyrimidin-5-yl]phenol]
IC50 (PI3 Kinase α): 57 nM | IC50 (PI3 Kinase γ): 242 nM

CCn1nnc2c(N3CCOCC3)nc(-c3ccc(N)cc3)nc21 [Example 32, 4-(3-Ethyl-7-morpholin-4-yl-3H-[1,2,3]triazolo[4,5-d]pyrimidin-5-yl)-phenylamine]
IC50 (PI3 Kinase α): 554 nM | IC50 (PI3 Kinase γ): 4070 nM

Oc1cccc(-c2nc(N3CCOCC3)c3nnn(CCN4CCCCC4)c3n2)c1 [Example 195, 3-[7-Morpholin-4-yl-3-(2-piperidin-1-ylethyl)-3H-[1,2,3]triazolo[4,5-d]pyrimidin-5-yl]phenol]
IC50 (PI3 Kinase α): 689 nM | IC50 (PI3 Kinase γ): 5210 nM

CNC(=O)Cn1nnc2c(N3CCOCC3)nc(-c3cccc(CO)c3)nc21 [Example 236, 2-{5-[3-(hydroxymethyl)phenyl]-7-morpholin-4-yl-3H-[1,2,3]triazolo[4,5-d]pyrimidin-3-yl}-N-methylacetamide]
IC50 (PI3 Kinase α): 560 nM | IC50 (PI3 Kinase γ): 1880 nM

CCn1nnc2c(N3CCOC[C@@H]3C)nc(-c3ccc(NC(=O)Nc4ccc(F)cc4)cc3)nc21 [Example 74, (S)-1-(4-(3-ethyl-7-(3-methylmorpholino)-3H-[1,2,3]triazolo[4,5-d]pyrimidin-5-yl)phenyl)-3-(4-fluorophenyl)urea]
IC50 (PI3 Kinase α): 9.5 nM | IC50 (PI3 Kinase γ): 97 nM

CN(C)CCNC(=O)Nc1ccc(-c2nc(N3CCOCC3)c3nnn(C4CCN(Cc5ccc[nH]5)CC4)c3n2)cc1 [Example 161, 1-(4-(3-(1-((1H-pyrrol-2-yl)methyl)piperidin-4-yl)-7-morpholino-3H-[1,2,3]triazolo[4,5-d]pyrimidin-5-yl)phenyl)-3-(2-(dimethylamino)ethyl)urea]
IC50 (PI3 Kinase α): 80 nM | IC50 (PI3 Kinase γ): 286 nM

O=C(c1ccc(Cn2nnc3c(N4CCOCC4)nc(-c4cccc(O)c4)nc32)cc1)N1CCCCC1 [Example 227, 3-{7-morpholin-4-yl-3-[4-(piperidin-1-ylcarbonyl)benzyl]-3H-[1,2,3]triazolo[4,5-d]pyrimidin-5-yl}phenol]
IC50 (PI3 Kinase α): 1130 nM | IC50 (PI3 Kinase γ): 950 nM

Cc1cc(CN2CCC(n3nnc4c(N5CCOCC5)nc(-c5cncc(O)c5)nc43)CC2)sc1C [Example 26, 5-(3-{1-[(4,5-dimethyl-2-thienyl)methyl]piperidin-4-yl}-7-morpholin-4-yl-3H-[1,2,3]triazolo[4,5-d]pyrimidin-5-yl)pyridin-3-ol]
IC50 (PI3 Kinase α): 16 nM | IC50 (PI3 Kinase γ): 108 nM

O=C(Nc1cccnc1)c1ccc(Cn2nnc3c(N4CCOCC4)nc(-c4cccc(O)c4)nc32)cc1 [Example 216, 4-{[5-(3-hydroxyphenyl)-7-morpholin-4-yl-3H-[1,2,3]triazolo[4,5-d]pyrimidin-3-yl]methyl}-N-pyridin-3-ylbenzamide]
IC50 (PI3 Kinase α): 58 nM | IC50 (PI3 Kinase γ): 361 nM

O=C(c1ccccc1)N1CCN(CCn2nnc3c(N4CCOCC4)nc(-c4cccc(O)c4)nc32)CC1 [Example 99, 3-{3-[2-(4-benzoylpiperazin-1-yl)ethyl]-7-morpholin-4-yl-3H-[1,2,3]triazolo[4,5-d]pyrimidin-5-yl}phenol]
IC50 (PI3 Kinase α): 924 nM | IC50 (PI3 Kinase γ): 5750 nM

Nc1ccccc1C(=O)N1CC(n2nnc3c(N4CCOCC4)nc(-c4cccc(O)c4)nc32)C1 [Example 126, (2-amino-phenyl)-{3-[5-(3-hydroxy-phenyl)-7-morpholin-4-yl-[1,2,3]triazolo[4,5-d]pyrimidin-3-yl]-azetidin-1-yl}-methanone]
IC50 (PI3 Kinase α): 60.5 nM | IC50 (PI3 Kinase γ): 873 nM

CC(C)(C)OC(=O)N1CC(n2nnc3c(N4CCOCC4)nc(-c4ccc(NC(=O)Nc5cccnc5)cc4)nc32)C1 [Example 130, tert-butyl 3-(7-morpholin-4-yl-5-{4-[(pyridin-3-ylcarbamoyl)amino]phenyl}-3H-[1,2,3]triazolo[4,5-d]pyrimidin-3-yl)azetidine-1-carboxylate]
IC50 (PI3 Kinase α): 34 nM | IC50 (PI3 Kinase γ): 165 nM

CN(C)CCNC(=O)Nc1ccc(-c2nc(N3CCOCC3)c3nnn(C4CCN(Cc5ccc(F)nc5)CC4)c3n2)cc1 [Example 157, 1-(2-(dimethylamino)ethyl)-3-(4-(3-(1-((6-fluoropyridin-3-yl)methyl)piperidin-4-yl)-7-morpholino-3H-[1,2,3]triazolo[4,5-d]pyrimidin-5-yl)phenyl)urea]
IC50 (PI3 Kinase α): 61 nM | IC50 (PI3 Kinase γ): 144 nM

COC(=O)c1ccc(Cn2nnc3c(N4CCOCC4)nc(-c4cccc(CO)c4)nc32)cc1 [Example 243, methyl 4-({5-[3-(hydroxymethyl)phenyl]-7-morpholin-4-yl-3H-[1,2,3]triazolo[4,5-d]pyrimidin-3-yl}methyl)benzoate]
IC50 (PI3 Kinase α): 765 nM | IC50 (PI3 Kinase γ): 9590 nM
